Results from patent US20080033026A1, “Antimicrobial compositions, methods and systems” (priority 2006, published 2008).

Columns and labels:
Assay in all cases: Time-kill determination
Assay type in all cases: cell-based
[1] = test system: Klebsiella pneumoniae (ATCC 4352)
Protocol: (§1) The assessment of efficacy of 9-decenoic acid against a spectrum of microorganisms was determined using the American Society for Testing and Materials (ASTM) procedure entitled “Standard Test Method for the Assessment of Microbiocidal Activity of Test Materials Using a Time-Kill Procedure,” October 1998. This procedure incorporates the recommendations described in the “Manual of Clinical Microbiology,” 5th ed., edited by A. B. Balows et al., ASM, Washington, and is directed by the Federal Register, June 1994.
(§2) Challenge organisms were prepared as follows. Cultures of the following organisms were obtained: Staphylococcus aureus (ATCC 6538), Pseudomonas aeruginosa (ATCC 15442), Staphylococcus epidermidis (ATCC 12228), Klebsiella pneumoniae (ATCC 4352), Escherichia coli 0157:H7 (ATCC 43895) and Candida albicans (ATCC 10231). The stock cultures were transferred to sterile tubes and sterile tryptic soy broth (TSB) was added to the cultures. The mixture was incubated for 18-24 hours at 37° C. (±2° C.). A portion of this culture was then transferred onto TSA plates and incubated for 18-24 hours at 37° C. (±2° C.). The plates were removed from incubation and the bacterial growth was washed from the agar surface using Butterfield's Phosphate Buffered Dilution Water (PBDW).
(§3) The bacterial suspension was adjusted to contain approximately 10^8 Colony Forming Units (CFU) per ml with PBDW. The concentration was adjusted to an optical density (OD) of 0.4-0.5 (versus a PBDW blank) at 620 nm in a UV-Vis spectrophotometer, and this optical density gave approximately 10^8 colony forming units per milliliter (cfu/ml). The standardized suspension was stored under appropriate conditions until it was used as the challenge inoculum.
(§4) Concentrated 9-decenoic acid (97%) was diluted in filter sterilized isopropanol to yield a 25,000 ppm stock solution. Subsequent dilutions to the 9-decenoic acid stock solutions were made with sterile Deionized Water (DI) to achieve concentrations of 0.1%, 0.05%, 0.01% and 0.001%. The pH was determined for each dilution; pH values ranged from 4.4-4.1. Additionally, 9-decenoic acid stock solution was adjusted to pH 7 with 1 N NaOH and serially diluted with sterile DI to achieve concentrations of 1%, 0.5%, 0.2%, 0.1%, 0.05% and 0.0025%. In addition, 9-decenoic acid stock solution was combined with Triclosan™ (obtained from Ciba Specialty Chemical Corporation, under the tradename Irgasan DP 300™) in various ratios, as indicated in Table 8. The pH of the combined solution was 7.
(§5) Compliant with the ASTM procedure cited, for each challenge microorganism a 9.9 ml aliquot of the prepared 9-decenoic acid suspension was added to a sterile tube. A 0.1 ml aliquot of the standardized inoculum was added to the 9-decenoic acid solution representing the start of the test exposure. The inoculated 9-decenoic acid solution was immediately mixed thoroughly. The inoculated suspension was held at room temperature for 0.5, 2, 5, 7 and 10-minute exposure times for tests run at pH level of approximately 4. The pH 7 tests were held at room temperature for 0.5 and 2 minutes.
(§6) At each exposure sample time, a 1.0 ml aliquot of the inoculated 9-decenoic acid suspension was transferred to 9.0 ml of D/E Neutralizing Broth. Additional ten-fold serial dilutions were made in PBDW and plated in duplicate on TSA. All plates were incubated for 48 hours at 37° C. (±2° C.) and visually examined for growth. The plates were enumerated, recorded and log kill determined for each time point.
(§7) The following study controls were conducted: culture purity, neutralizer sterility, initial suspension population, test population, neutralization verification and a negative control using isopropanol. Culture purity was verified by performing a streak plate for isolated colonies of each culture used. All cultures were determined to be pure based on consistent colony morphology typical for the test organism. The neutralizer sterility was confirmed by no growth in an incubated sample. […]

[2] = test system: Pseudomonas aeruginosa (ATCC 15442)
Protocol: as §1, §2, §3, §4, §5, §6, §7

[3] = test system: Staphylococcus epidermidis (ATCC 12228)
Protocol: as §1, §2, §3, §4, §5, §6, §7

[4] = 0.01% 9-decenoic acid, pH 4.4, exposure 0.5 min
[5] = 0.01% 9-decenoic acid, pH 4.4, exposure 2 min
[6] = 0.01% 9-decenoic acid, pH 4.4, exposure 5 min
[7] = 0.01% 9-decenoic acid, pH 4.4, exposure 7 min
[8] = 0.01% 9-decenoic acid, pH 4.4, exposure 10 min
[9] = 0.05% 9-decenoic acid, pH 4.1, exposure 0.5 min
[10] = 0.05% 9-decenoic acid, pH 4.1, exposure 2 min
[11] = 0.05% 9-decenoic acid, pH 4.1, exposure 5 min
[12] = 0.05% 9-decenoic acid, pH 4.1, exposure 7 min
[13] = 0.05% 9-decenoic acid, pH 4.1, exposure 10 min
[14] = 0.1% 9-decenoic acid, pH 4.1, exposure 0.5 min
[15] = 0.1% 9-decenoic acid, pH 4.1, exposure 2 min
[16] = 0.1% 9-decenoic acid, pH 4.1, exposure 5 min
[17] = 0.1% 9-decenoic acid, pH 4.1, exposure 7 min
[18] = 0.1% 9-decenoic acid, pH 4.1, exposure 10 min

Question: `C=CCCCCCCCC(=O)O` [9-decenoic acid] was tested. Which Log reduction [1, 4] did it give?
Answer: Its Log reduction is 1.4 log.

Question: And the Log reduction [1, 5]?
Answer: Its Log reduction is greater than 6.3 log.

Question: And the Log reduction [1, 6]?
Answer: Its Log reduction is greater than 6.3 log.

Question: What about the Log reduction [1, 7] of the same compound?
Answer: The Log reduction was greater than 6.3 log.

Question: What about the Log reduction [1, 8] of the same compound?
Answer: The Log reduction was greater than 6.3 log.

Question: And the Log reduction [1, 9]?
Answer: The Log reduction was greater than 6.3 log.

Question: And the Log reduction [1, 10]?
Answer: Its Log reduction is greater than 6.3 log.

Question: What about the Log reduction [1, 11] of the same compound?
Answer: The Log reduction was greater than 6.3 log.

Question: What about the Log reduction [1, 12] of the same compound?
Answer: The Log reduction was greater than 6.3 log.

Question: And the Log reduction [1, 13]?
Answer: Its Log reduction is greater than 6.3 log.

Question: And the Log reduction [1, 14]?
Answer: The Log reduction was greater than 6.3 log.

Question: What about the Log reduction [1, 15] of the same compound?
Answer: The Log reduction was greater than 6.3 log.

Question: And the Log reduction [1, 16]?
Answer: The Log reduction was greater than 6.3 log.

Question: And the Log reduction [1, 17]?
Answer: Its Log reduction is greater than 6.3 log.

Question: And the Log reduction [1, 18]?
Answer: The Log reduction was greater than 6.3 log.

Question: And the Log reduction [2, 4]?
Answer: Its Log reduction is greater than 6.1 log.

Question: And the Log reduction [2, 5]?
Answer: The Log reduction was greater than 6.1 log.

Question: And the Log reduction [2, 6]?
Answer: Its Log reduction is greater than 6.1 log.

Question: What about the Log reduction [2, 7] of the same compound?
Answer: Its Log reduction is greater than 6.1 log.

Question: And the Log reduction [2, 8]?
Answer: The Log reduction was greater than 6.1 log.

Question: What about the Log reduction [2, 9] of the same compound?
Answer: Its Log reduction is greater than 6.1 log.

Question: What about the Log reduction [2, 10] of the same compound?
Answer: Its Log reduction is greater than 6.1 log.

Question: What about the Log reduction [2, 11] of the same compound?
Answer: The Log reduction was greater than 6.1 log.

Question: And the Log reduction [2, 12]?
Answer: Its Log reduction is greater than 6.1 log.

Question: What about the Log reduction [2, 13] of the same compound?
Answer: Its Log reduction is greater than 6.1 log.

Question: What about the Log reduction [2, 14] of the same compound?
Answer: Its Log reduction is greater than 6.1 log.

Question: And the Log reduction [2, 15]?
Answer: The Log reduction was greater than 6.1 log.

Question: And the Log reduction [2, 16]?
Answer: The Log reduction was greater than 6.1 log.

Question: What about the Log reduction [2, 17] of the same compound?
Answer: The Log reduction was greater than 6.1 log.

Question: And the Log reduction [2, 18]?
Answer: The Log reduction was greater than 6.1 log.

Question: And the Log reduction [3, 4]?
Answer: Its Log reduction is greater than 5.7 log.

Question: What about the Log reduction [3, 5] of the same compound?
Answer: The Log reduction was greater than 5.7 log.

Question: And the Log reduction [3, 6]?
Answer: The Log reduction was greater than 5.7 log.

Question: And the Log reduction [3, 7]?
Answer: The Log reduction was greater than 5.7 log.

Question: What about the Log reduction [3, 8] of the same compound?
Answer: The Log reduction was greater than 5.7 log.

Question: What about the Log reduction [3, 9] of the same compound?
Answer: Its Log reduction is greater than 5.7 log.

Question: And the Log reduction [3, 10]?
Answer: The Log reduction was greater than 5.7 log.

Question: What about the Log reduction [3, 11] of the same compound?
Answer: Its Log reduction is greater than 5.7 log.

Question: What about the Log reduction [3, 12] of the same compound?
Answer: Its Log reduction is greater than 5.7 log.

Question: What about the Log reduction [3, 13] of the same compound?
Answer: The Log reduction was greater than 5.7 log.

Question: What about the Log reduction [3, 14] of the same compound?
Answer: The Log reduction was greater than 5.7 log.

Question: And the Log reduction [3, 15]?
Answer: The Log reduction was greater than 5.7 log.

Question: What about the Log reduction [3, 16] of the same compound?
Answer: Its Log reduction is greater than 5.7 log.

Question: And the Log reduction [3, 17]?
Answer: Its Log reduction is greater than 5.7 log.

Question: What about the Log reduction [3, 18] of the same compound?
Answer: The Log reduction was greater than 5.7 log.
